Laboratory results reported in BindingDB's records for doi:10.1021/jm00051a016 (University of Michigan, 1995).

Legend:
Mu-type opioid receptor [1] = biological target: T1, Mu-type opioid receptor (Cavia porcellus, UniProt P97266); test: Agonist activity was assessed in an guinea pig ileum (GPI) smooth muscle bioassay
Mu-type opioid receptor [2] = biological target: T1, Mu-type opioid receptor; test: Binding affinity against mu opioid receptor using [3H]DAMGO in guinea pig ileum

T1 sequence (P97266 whole entry): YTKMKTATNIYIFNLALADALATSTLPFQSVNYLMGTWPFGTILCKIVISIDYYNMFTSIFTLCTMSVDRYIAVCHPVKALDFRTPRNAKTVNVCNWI

CN1C(=O)[C@H](CS)N(C(=O)[C@@H](N)Cc2ccc(O)cc2)C(=O)[C@@H](C(C)(C)S)NC(=O)[C@@H]1Cc1ccccc1 [4-[2-Amino-3-(4-hydroxy-phenyl)-propionyl]-9-benzyl-3-mercaptomethyl-6-(1-mercapto-1-methyl-ethyl)-1-methyl-[1,4,7]triazonane-2,5,8-trione]
IC50 (Mu-type opioid receptor [1]): > 30 µM | Ki (Mu-type opioid receptor [2]): > 10 µM
